Measured values: patent US5658906A, “Cysteine protease and serine protease inhibitors” (Cephalon, Inc., priority 1996, dated 1997)

Columns and labels:
Calpain I = target: T1, Calpain I (Homo sapiens, UniProt P07384); experiment: Inhibition and rate of inactivation of calpain I (Succ-Leu-Tyr-MNA hydrolysis); type: biochemical; conditions: mean of three or more independent analyses, corrected for substrate, k2 = kapp(1+[S]/Km), read-out: k2 (second order rate constant of inactivation), A = Calpain I
T1 construct: Calpain I was purified from human red blood cells; from tissue; host or cells: human red blood cells (packed, outdated)
T1 sequence (P07384 1-714): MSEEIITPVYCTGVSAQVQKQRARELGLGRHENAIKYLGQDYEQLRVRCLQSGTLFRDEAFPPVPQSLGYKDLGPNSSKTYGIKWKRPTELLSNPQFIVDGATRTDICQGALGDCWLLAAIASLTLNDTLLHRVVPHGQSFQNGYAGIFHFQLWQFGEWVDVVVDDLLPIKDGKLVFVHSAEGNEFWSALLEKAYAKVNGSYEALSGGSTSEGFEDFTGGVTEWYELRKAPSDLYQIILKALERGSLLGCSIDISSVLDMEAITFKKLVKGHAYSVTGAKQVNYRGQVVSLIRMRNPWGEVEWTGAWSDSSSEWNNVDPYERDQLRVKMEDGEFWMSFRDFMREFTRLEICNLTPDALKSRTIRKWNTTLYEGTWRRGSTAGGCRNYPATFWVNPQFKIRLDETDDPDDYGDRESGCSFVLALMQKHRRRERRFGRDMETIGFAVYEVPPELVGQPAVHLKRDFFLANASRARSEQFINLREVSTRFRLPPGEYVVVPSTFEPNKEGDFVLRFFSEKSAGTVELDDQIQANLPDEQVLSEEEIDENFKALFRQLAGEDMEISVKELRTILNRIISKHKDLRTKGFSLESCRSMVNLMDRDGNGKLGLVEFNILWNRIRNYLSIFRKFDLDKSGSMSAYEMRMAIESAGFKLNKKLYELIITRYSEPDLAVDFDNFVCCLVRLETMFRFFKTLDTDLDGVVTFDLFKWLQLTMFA
T1 sequence (P04632 1-268 partner): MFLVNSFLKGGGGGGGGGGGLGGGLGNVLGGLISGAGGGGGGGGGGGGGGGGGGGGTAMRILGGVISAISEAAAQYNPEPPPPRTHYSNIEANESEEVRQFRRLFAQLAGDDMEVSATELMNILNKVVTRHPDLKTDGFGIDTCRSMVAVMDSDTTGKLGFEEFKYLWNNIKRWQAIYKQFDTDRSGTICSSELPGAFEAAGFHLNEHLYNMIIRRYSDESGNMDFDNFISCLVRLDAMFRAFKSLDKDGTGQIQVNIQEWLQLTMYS
Procedure: To evaluate inhibitory activity of our compounds, stocks (40 times concentrated) of each compound to be tested were prepared in 100% anhydrous dimethyl sulfoxide (DMSO) and 5 μl of each inhibitor preparation was aliquoted into each of three wells of a 96 well plate. Calpain I was purified from human red blood cells using a modification of the method described by Lee, W. J. et al. (Biochem. Internatl. (1990)22(1): 163-171). Briefly, 3 units of packed outdated red blood cells were washed 3× by repeated centrifugation at 500 rpm for 10 minutes through 900 mls of 0.9% NaCl. Cells were lysed in 20 mM Tris/1 mM EDTA/1 mM EGTA/5 mM mercaptoethanol (Buffer A) and centrifuged for 1 hour at 12,000 rpm in a GSA rotor using a Sorval centrifuge. The supernatant was collected and applied to a DEAE-sepharose FF column equilibrated in Buffer A+25 mM NaCl. After washing the column in Buffer A+25 mM NaCl, the bound protein was eluted at 117 ml/hr with a 25 mM to 150 mM NaCl linear gradient in Buffer A collecting 200, 10 mL fractions. Two μl of every fifth fraction was applied to nitrocelluose using a dot blot apparatus and calpain containing fractions identified by Western analysis. For detection of calpain, nitrocellulose sheets were first blocked in 5% Blotto (5% Carnation instant milk/10 mM Tris/[…]150 mM NaCl) for 30 minutes, followed by incubation for 1 hour in antibody directed against Calpain I (rabbit anti-human calpain I polyclonal sera, 1:1000 dilution in 5% Blotto). After three 5 minutes washes in 10 mM Tris/150 mM NaCl/0.05% Tween 20 the nitrocellulose was incubated for 1 hour in secondary alkaline phosphatase conjugated antibody (Biorad Cat#170-6518 1:2000 in 5% Blotto). After three 5 minutes washes in 10 mM Tris/150 mM NaCl/0.05% Tween 20 and 1 wash in 10 mM Tris/150 mM NaCl the nitrocellulose was incubated for up to 2 hours in a colorimetric substrate solution (Biorad Alkaline Phosphatase Substrate conjugate kit, cat#170-6432). The reaction was stopped by washing in water. After fractions containing calpain, and those in between, were pooled, solid ammonium sulfate was added to achieve a 30% solution and the mixture stirred for 1 hour at 4° C. Following collection of the precipitate by centrifugation for 1 hour at 4° C. at 12K rpm in a GSA rotor, the supernatant was collected and brought to 45% in ammonium sulfate. After stirring for 1 hour at 4° C., centrifugation was repeated. The supernatant was discarded and the precipitate resuspended in approximately 7 mls and dialyzed overnight at 4° C. against Buffer A+50 mM NaCl. The sample was then applied to a S300 gel filtration column preequilibrated in Buffer A+50 mM NaCl, washed and eluted at a flow rate of 20 ml/hr, collecting 200, 4 ml fractions. The peak of calpain was determined by assaying aliquots of every fifth fraction for enzyme activity monitored by the hydrolysis of a fluorogenic dipeptide substrate as described below. The peak fractions were pooled and the enzyme preparation used to test compounds for inhibitory activity. As an alternate to enzyme isolated from tissue sources, recombinant human calpain I has also been used to monitor compounds for inhibitory activity.
The foregoing enzyme preparation was diluted into assay buffer (i.e., 50 mM Tris, 50 mM NaCl, 1 mM EDTA, 1 mM EGTA, and 5 mM β-mercaptoethanol, pH 7.5 including 0.2 mM Succ-Leu-Tyr-MNA) and 175 μl aliquoted into the same wells containing the independent inhibitor stocks as well as to positive control wells containing 5 μl DMSO, but no compound. To start the reaction, 20 μl of 50 mM CaCl2 in assay buffer was added to all wells of the plate, excepting three, which were used as background signal baseline controls. Substrate hydrolysis was monitored every 5 minutes for a total of 30 minutes using Flouroskan II (ex=340 nm; em=430 nm). Substrate hydrolysis in the absence of inhibitor was linear for up to 15 minutes. […]

[1] = tested on: calpain I in Molt-4 cells (α-spectrin breakdown products); experiment: Inhibition of calpain activation in intact Molt-4 cells (calpain-generated spectrin breakdown products); type: cell-based; conditions: Homo sapiens, calcium and ionophore (ionomycin), read-out: % Inhibition of BDPs (10 μM)
α-chymotrypsin = target: T2, α-chymotrypsin (Bos taurus, UniProt P00766); experiment: Inhibition of the serine protease α-chymotrypsin (Succ-Ala-Ala-Pro-Phe-AMC hydrolysis); type: biochemical; conditions: pH 7.5, 0.03 mM substrate
T2 construct: purchased Sigma Chem. Co. C-3142
Procedure: Additionally,because α-chymotrypsin is not a calcium sensitive enzyme and is constituitively active, following addition of inhibitor stocks to the 96 well plates, 100 ul of a 2 fold concentrated stock of enzyme in dilution buffer was first added and the reaction started by addition of 100 ul of a 2 fold concentrated stock of substrate in assay buffer. Substrate hydrolysis was monitored every 5 minutes up to 30 minutes using a Fluoroskan II ([…]).

kinact/KI (Calpain I): 4000 M⁻¹ s⁻¹ | inhibition at 10 µM (α-chymotrypsin): 91%
Compound: CC(C)C[C@H](NC(=O)OCc1ccccc1)C(=O)N[C@@H](Cc1ccccc1)C(=O)COn1cnc2ccccc21 [Example 22, 1-[N-[N-Benzyloxycarbonyl-L-leucyl]-(3S)-4-phenyl-3-amino-2-oxybutyloxy]benzimidazole]
inhibition at 10 µM [1]: 61%
